Like-named read-outs stand apart in the source and are kept apart here.

In this assay the test system is hydrochloric acid-ethanol-induced gastric ulcer. In words: Effect against hydrochloric acid ethanol-induced gastric ulcer (percent suppression of lesion index, oral). Type of assay: in vivo, male JCL-SD rats or CRJ-SD rats. The settings on record: for inhibition in vivo at 0.1 mg/kg / inhibition in vivo at 0.03 mg/kg: Rattus norvegicus, po, 1 h, read-out: Percent Suppression (P.S.); for inhibition in vivo at 0.1 mg/kg: 100 μg/kg. As for the experimental part:
To male JCL-SD rats or CRJ-SD rats (weight: 220 g to 260 g) which have been fasted for 24 hours is administered orally 1 ml of 150 mM hydrochloric acid-60% ethanol. After an hour, the stomachs are excised. The ulcer size is determined by measuring the length of each lesion using a stereoscopic microscope and the sum of individual lesion length is expressed as lesion index. The vehicle (1% to 10% ethanol) and the test compounds are administered orally 30 minutes before the hydrochloric acid-ethanol administration. The percent suppression is calculated from the lesion indexes of treated versus non-treated animals.

[1] abbreviates: JCL-SD rats, oral, 30 min before HCl-ethanol.
[2] abbreviates: JCL-SD rats, oral, 30 μg/kg, 30 min before HCl-ethanol.

`CCCCC[C@@H](O)/C=C/[C@H]1[C@@H]2Oc3cccc(OCC(=O)O)c3O[C@@H]2C[C@@H]1O` (relative stereo) [Iba-b, [(1R*,2S*,3aR*,9aS*)-2-hydroxy-1-[(3R*,1E)-3-hydroxy-1-octenyl]-2,3,3a,9a-tetrahydro-1H-cyclopenta[b][1,4]benzodioxin-5-yl]oxyacetic acid]: the inhibition in vivo at 0.1 mg/kg under setting [1] was determined as 30%. Regarding `CCCCC[C@H](O)/C=C/[C@H]1[C@@H]2Oc3cccc(OCC(=O)OC)c3O[C@@H]2C[C@@H]1O` (relative stereo) [Ida-a, methyl [(1R*,2S*,3aR*,9aS*)-2-hydroxy-1-[(3S*,1E)-3-hydroxy-1-octenyl]-2,3,3a,9a-tetrahydro-1H-cyclopenta[b][1,4]benzodioxin-5-yl]oxyacetate], under setting [2], the inhibition in vivo at 0.03 mg/kg amounted to 37%. Still for that read-out and setting: for `COC(=O)COc1cccc2c1OC1CC(O)C(C=CC(O)CC(C)COc3ccccc3)C1O2` (centres unmarked) [Ibo-a] the value was 63%; for `COC(=O)COc1cccc2c1O[C@@H]1C[C@H](O)[C@@H](/C=C/[C@H](O)C3CCCCC3)[C@@H]1O2` (relative stereo) [Ibb-a], 63%.

Take `CCCCC(C)CC(O)C=CC1C(O)CC2Oc3c(OCC(=O)OC)cccc3OC21` (centres unmarked) [Ide-a]: the “Percent Suppression (P.S.)” value under setting [2] is reported as 37%. On to `COC(=O)COc1cccc2c1OC1CC(O)C(C=CC(O)CC(C)CCC=C(C)C)C1O2` (centres unmarked) [Ibk-a], for which the inhibition in vivo at 0.03 mg/kg under setting [2] is 81%. `CCCCC[C@H](O)/C=C/[C@H]1[C@@H]2Oc3cccc(OCC(=O)O)c3O[C@@H]2C[C@@H]1O` (relative stereo) [Ida-b, [(1R*,2S*,3aR*,9aS*)-2-hydroxy-1-[(3S*,1E)-3-hydroxy-1-octenyl]-2,3,3a,9a-tetrahydro-1H-cyclopenta[b][1,4]benzodioxin-5-yl]oxyacetic acid]: the inhibition in vivo at 0.1 mg/kg under setting [1] was 19%. Regarding `COC(=O)COc1cccc2c1O[C@@H]1C[C@H](O)[C@@H](CC[C@H](O)C3CCCC3)[C@@H]1O2` (relative stereo) [Ifi-a], under setting [2], the inhibition in vivo at 0.03 mg/kg came out at 52%. Regarding `CCCCC(C)(C)[C@@H](O)/C=C/[C@H]1[C@@H]2Oc3cccc(OCC(=O)OC)c3O[C@@H]2C[C@@H]1O` (relative stereo) [Ibg-a], the inhibition in vivo at 0.03 mg/kg under setting [2] worked out at 15%.

Consider `CCCCC[C@@H](O)/C=C/[C@H]1[C@@H]2Oc3cccc(OCC(=O)OC)c3O[C@@H]2C[C@@H]1O` (relative stereo) [Iba-a], for which the inhibition in vivo at 0.03 mg/kg under setting [2] was determined as 36%. Still for that read-out and setting: the value for `CCCCC[C@@H](O)CC[C@H]1[C@@H]2Oc3cccc(OCC(=O)OC)c3O[C@@H]2C[C@@H]1O` (relative stereo) [Ifa-a, methyl[(1R*,2S*,3aR*,9aS*)-2-hydroxy-1-[(R*)-3-hydroxyoctyl]-2,3,3a,9a-tertahydro-1H-cyclopenta[b][1,4]benzodioxin-5-oxyacetate] was 27%. Turning to `CCCCC(C)CC(O)C=CC1C(O)CC2Oc3c(OCC(=O)OC)cccc3OC21` (centres unmarked) [Ibe-a], the “Percent Suppression (P.S.)” value under setting [2] is listed as 96%. Under “CRJ-SD rats, oral, 30 μg/kg, 30 min before HCl-ethanol”, the inhibition in vivo at 0.03 mg/kg was 99%. On to `O=C(O)COc1cccc2c1O[C@@H]1C[C@H](O)[C@@H](/C=C/[C@@H](O)C3CCCCC3)[C@@H]1O2` (relative stereo) [Idb-b], for which, under setting [2], the inhibition in vivo at 0.03 mg/kg was determined as 25%. Turning to `CCC#CCC[C@@H](O)/C=C/[C@H]1[C@@H]2Oc3cccc(OCC(=O)OC)c3O[C@@H]2C[C@@H]1O` (relative stereo) [Ibc-a], the inhibition in vivo at 0.03 mg/kg under setting [2] came to 29%. As for `COC(=O)COc1cccc2c1OC1CC(O)C(C=CC(O)CC(C)Oc3ccccc3)C1O2` (centres unmarked) [Ibm-a], the inhibition in vivo at 0.03 mg/kg under setting [2] is 58%.

In the case of `CC(C)=CCCC(C)CC(O)C=CC1C(O)CC2Oc3c(OCC(=O)O)cccc3OC21` (centres unmarked) [Ibk-b], the inhibition in vivo at 0.03 mg/kg under setting [2] worked out at 70%. Turning to `CCC#CCC[C@@H](O)/C=C/[C@H]1[C@@H]2Oc3cccc(OCC(=O)O)c3O[C@@H]2C[C@@H]1O` (relative stereo) [Ibc-b], the inhibition in vivo at 0.03 mg/kg under setting [2] stood at 14%. Regarding `COC(=O)COc1cccc2c1OC1CC(O)C(C=CC(O)CC(C)CCC=C(C)C)C1O2` (centres unmarked) [Ibl-a], the “Percent Suppression (P.S.)” value under setting [2] is reported as 64%. `CCCCC(C)CC(O)C=CC1C(O)CC2Oc3c(OCC(=O)OC)cccc3OC21` (centres unmarked) [Idd-a]: the “Percent Suppression (P.S.)” value under setting [2] came to 32%.

As to `O=C(O)COc1cccc2c1O[C@@H]1C[C@H](O)[C@@H](/C=C/[C@H](O)C3CCCCC3)[C@@H]1O2` (relative stereo) [Ibb-b], the inhibition in vivo at 0.03 mg/kg under setting [2] was 25%. On the same count and under the same terms, for `COC(=O)COc1cccc2c1O[C@@H]1C[C@H](O)[C@@H](/C=C/[C@H](O)C3CCCC3)[C@@H]1O2` (relative stereo) [Ibi-a] the value was 41%.

In the case of `CCCCC[C@H](O)/C=C/[C@@H]1[C@H]2CC(SCCCC(=O)OC)=N[C@H]2C[C@H]1O` [Hoe892, reference compound], the “Percent Suppression (P.S.)” value (reference compound, 300 μg/Kg, strain not stated) is recorded as 28%. As for `O=C(O)COc1cccc2c1O[C@@H]1C[C@H](O)[C@@H](CC[C@H](O)C3CCCCC3)[C@@H]1O2` (relative stereo) [Ifb-b], under setting [2], the inhibition in vivo at 0.03 mg/kg came to 75%. On the same count and under the same terms, the value for `COC(=O)COc1cccc2c1O[C@@H]1C[C@H](O)[C@@H](CC[C@H](O)CC3CCCCC3)[C@@H]1O2` (relative stereo) [Ifj-a] was 25%. On to `CCCCC(C)CC(O)C=CC1C(O)CC2Oc3c(OCC(=O)O)cccc3OC21` (centres unmarked) [Ibd-b], for which the “Percent Suppression (P.S.)” value under setting [2] is reported as 74%. For `CC(C)=CCCC(C)CC(O)C=CC1C(O)CC2Oc3c(OCC(=O)O)cccc3OC21` (centres unmarked) [Ibl-b], the “Percent Suppression (P.S.)” value under setting [2] is given as 83%. As for `CCCCC(C)CC(O)C=CC1C(O)CC2Oc3c(OCC(=O)OC)cccc3OC21` (centres unmarked) [Ibd-a], the “Percent Suppression (P.S.)” value under setting [2] is 91%. On the same count and under the same terms, for `CCCCC(C)CC(O)CCC1C(O)CC2Oc3c(OCC(=O)OC)cccc3OC21` (centres unmarked) [Ife-a] the value was 91%. On to `CCCCC(C)CC(O)C=CC1C(O)CC2Oc3c(OCC(=O)O)cccc3OC21` (centres unmarked) [Ibe-b], for which the inhibition in vivo at 0.03 mg/kg under setting [2] was 80%. As to `CCCCC(C)CC(O)CCC1C(O)CC2Oc3c(OCC(=O)OC)cccc3OC21` (centres unmarked) [Ifd-a], the “Percent Suppression (P.S.)” value under setting [2] was 66%.

Take `COC(=O)COc1cccc2c1O[C@@H]1C[C@H](O)[C@@H](CC[C@H](O)C3CCCCC3)[C@@H]1O2` (relative stereo) [Ifb-a]: the inhibition in vivo at 0.03 mg/kg under setting [2] turned out to be 78%.

The values are drawn from patent US4902811A, “Benzodioxane prostacyclin analogs” (Shionogi & Co., Ltd., priority 1987, dated 1990).
